{
  "source": "paper PMC9067113",
  "about": "(IUCrJ, 2022)",
  "key": {"natural β-lactoglobulin": {"target": "natural β-lactoglobulin (Bos taurus, UniProt P02754)", "sequence (P02754 17-178)": "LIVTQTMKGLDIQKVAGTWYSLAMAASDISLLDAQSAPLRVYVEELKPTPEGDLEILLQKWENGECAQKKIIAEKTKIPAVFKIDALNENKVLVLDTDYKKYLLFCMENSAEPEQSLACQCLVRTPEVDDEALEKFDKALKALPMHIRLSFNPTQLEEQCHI"}, "[1]": {"target": "T1, β-lactoglobulin I56F/L39A/M107F (FAF) (Bos taurus, UniProt P02754, I18S/I72F/L17A/L55A/M123F)", "T1 sequence (P02754 17-178 L17A/I18S/L55A/I72F/M123F)": "as the sequence (P02754 17-178) above, with L1A, I2S, L39A, I56F, M107F counted along it", "settings": "for N, stoichiometry: one set of binding sites model"}, "[2]": {"target": "T2, β-lactoglobulin I56F/L39A/M107W (FAW) (Bos taurus, UniProt P02754, I18S/I72F/L17A/L55A/M123W)", "T2 sequence (P02754 17-178 L17A/I18S/L55A/I72F/M123W)": "as the sequence (P02754 17-178) above, with L1A, I2S, L39A, I56F, M107W counted along it"}, "[3]": {"target": "T1, β-lactoglobulin I56F/L39A/M107F (FAF)", "settings": "50 mM phosphate buffer pH 7.5"}, "[4]": {"target": "T2, β-lactoglobulin I56F/L39A/M107W (FAW)", "settings": "50 mM phosphate buffer pH 7.5"}},
  "note": "Read-outs that look alike come from different tables or passages of the source.",
  "data": [
    {"smiles": "CNCCCN1c2ccccc2CCc2ccccc21", "note": "[DSM, desipramine]", "values": [
      {"measurement": "N, stoichiometry", "setting": "natural β-lactoglobulin; Natural BLG, pH 7.5, 25 mM HEPES, 150 mM NaCl, 293 K, one set of binding sites model", "result": "0.91 ± 0.08"},
      {"measurement": "TΔS a", "setting": "natural β-lactoglobulin; Natural BLG, pH 7.5, 293 K", "result": 4.395, "unit": "kcal/mol"},
      {"measurement": "ΔH a, enthalpy change", "setting": "natural β-lactoglobulin; Natural BLG, pH 7.5, 293 K", "result": "-1.298 ± 0.145", "unit": "kcal/mol"},
      {"measurement": "ΔS a, entropy change", "setting": "natural β-lactoglobulin; Natural BLG, pH 7.5, 293 K", "result": 15.0, "unit": "cal mol^−1 K^−1"},
      {"measurement": "outcome of ITC titration at pH 8.5", "setting": "natural β-lactoglobulin; native protein, Tris buffer pH 8.5", "result": "insufficient enthalpy change for the calculation of binding parameters"},
      {"measurement": "N, stoichiometry", "setting": "[1]; pH 7.5, 25 mM HEPES, 150 mM NaCl, 293 K", "result": "0.94 ± 0.06"},
      {"measurement": "TΔS a", "setting": "[1]; pH 7.5, 293 K", "result": 4.2192, "unit": "kcal/mol"},
      {"measurement": "ΔH a, enthalpy change", "setting": "[1]; pH 7.5, 293 K", "result": "-1.634 ± 0.133", "unit": "kcal/mol"},
      {"measurement": "ΔS a, entropy change", "setting": "[1]; pH 7.5, 293 K", "result": 14.4, "unit": "cal mol^−1 K^−1"},
      {"measurement": "TΔS a", "setting": "[1]; pH 8.5, Tris buffer, 293 K", "result": 5.3033, "unit": "kcal/mol"},
      {"measurement": "ΔS a, entropy change", "setting": "[1]; pH 8.5, Tris buffer, 293 K", "result": 18.1, "unit": "cal mol^−1 K^−1"},
      {"measurement": "N, stoichiometry", "setting": "[1]; pH 8.5, Tris buffer, 293 K", "result": "1.21 ± 0.08"},
      {"measurement": "outcome of ITC titration at pH 8.5", "setting": "[2]; Tris buffer pH 8.5", "result": "insufficient enthalpy change for the calculation of binding parameters"},
      {"measurement": "N, stoichiometry", "setting": "[2]; pH 7.5, 25 mM HEPES, 150 mM NaCl, 293 K, one set of binding sites model", "result": "0.92 ± 0.05"},
      {"measurement": "TΔS a", "setting": "[2]; pH 7.5, 293 K", "result": 4.2485, "unit": "kcal/mol"},
      {"measurement": "ΔH a, enthalpy change", "setting": "[2]; pH 7.5, 293 K", "result": "-1.792 ± 0.137", "unit": "kcal/mol"},
      {"measurement": "ΔS a, entropy change", "setting": "[2]; pH 7.5, 293 K", "result": 14.5, "unit": "cal mol^−1 K^−1"},
      {"measurement": "stoichiometry (DSM molecule per BLG chain), CD", "setting": "[3]", "result": 1},
      {"measurement": "stoichiometry (DSM molecule per BLG chain), CD", "setting": "[4]", "result": 1}
    ]}
  ]
}
